{"source": "patent US20200276090A1", "about": "“TOPICAL PRODUCTS WITH A BIPHASIC SYSTEM” (CMED AESTHETICS s.r.l., priority 2017, published 2020)", "origin": "cited, not measured here", "details": "after 90 days", "note": "Like-named read-outs stand apart in the source and are kept apart here."}
{"smiles": "O=C(O)C(Cl)(Cl)Cl", "note": "[TCA, trichloroacetic acid]", "values": [{"measurement": "Degradation of TCA", "setting": "TCA in aqueous solution alone", "result": 12.6, "unit": "%"}, {"measurement": "Degradation of TCA", "setting": "in the presence of a high percentage of stabilizing agents, on average", "result": "2-3%"}, {"measurement": "Degradation of TCA", "setting": "in the presence of a low percentage of stabilizing agents, on average", "result": "4-5%"}]}
